Measurements taken from patent US20200129524A1, “PERSONALIZED CONTRACEPTIVE FORMULATIONS” (Agile Therapeutics, Inc., priority 2017, published 2020).

Experiments:
[1] = cited from earlier work
[2] = Free LNG circulating in plasma versus EE delivered (WO2016187269)
Protocol: However, ethinyl estradiol binds to SHBG and in the process it releases some of the bound LNG. Therefore if more or less than about 30 μg of EE are delivered from the contraceptive formulation, the required levels shown in FIGS. 3, 3a and 3b will have to be modified accordingly. […] Therefore the levels of required LNG can be calculated for any level of accompanied EE.

healthy women [3] = test: Clinical trial of contraceptive effectiveness of a transdermal patch (% of women pregnant by weight or BMI category); assay type: in vivo; conditions: 120 μg/d LNG + 30 μg/d EE patch, 13 cycles (one year)
Source text: To obtain the required data that would allow us to determine the personalized dosage of progestin required for each woman, we performed a clinical trial which is shown below as Example 1. When administered 120 micrograms per day of levonorgestrel (LNG), the number of women in each body weight category and the percent of the women in each category that became pregnant over a period of one year is shown in Table 1 and graphically depicted in FIG. 1.
In a clinical trial, 2032 healthy women, aged 18 and over, were enrolled in 102 investigative sites in the US. It was an open label, 13 cycle trial (one year) to study the effectiveness of a transdermal patch delivering 120 μg per day of levonorgestrel (LNG) and 30 μg per day of ethinyl estradiol (EE). The treatment regimen for each cycle was three consecutive 7-day patches (21 days) followed by one patch-free week.
The women enrolled in the different weight categories (in pounds) are shown in the second column of Table 1.
The percentage of women that became pregnant over the 13 cycle period is shown in column 3 of Table 1. A graph of the percentage of women that became pregnant in each weight category is also graphically illustrated in FIG. 1.
The same analysis was performed using the BMI of the women enrolled in the trial.

healthy women [4] = test: Statistical (quadratic regression) analysis of LNG required dose with confidence limits; assay type: in vivo; set-up: dose required: unit: μg; conditions: for Daily LNG Required Dose, 1.5% Pregnancy Rate Dose / Daily LNG Required Dose, 3% Pregnancy Rate Dose: EE 30 μg; for level of LNG equivalent: women with body weight of over 200 pounds, 30 μg EE per day
Source text: Z represents the applicable coefficient to obtain a desired level of confidence (e.g. a coefficient of two would imply a 95.5% confidence level and a coefficient of three would imply a 99.7% confidence level). The other variables are the same as indicated above. For example, the dose required for a 150 pound person assuming a 95% confidence level would be determined as follows: […]
Table 7 and FIG. 6 summarize the maximum and the minimum dose of levonorgestrel levels required at the 95.5% level of confidence (two standard deviation units, i.e., two σ) for varying woman BMI categories.
Table 7a and FIG. 6a summarize the maximum and the minimum dose of levonorgestrel levels required at the 68% level of confidence (one standard deviation unit, i.e., one σ) for varying woman BMI categories.
A review of the data points associated with Tables 4 and 5 reveal again a relationship which could be linear or quadratic. Again, since the data has substantial variability in the individual points a statistical analysis of the data was performed. The applicable linear and quadratic equations had correlation coefficients R2 of 0.73 for both 1.5 and 3% pregnancy rates. The standard error for the 1.5% pregnancy rate (linear VS quadratic) as well as the 3% pregnancy rate (linear versus quadratic) was within 10 micrograms of each other. […] We chose to draw FIGS. 4a and 4b based on the quadratic equations, so as to have an easier comparison to the corresponding body weight lines in FIGS. 3a and 3b.
As indicated above the implied equation is shown below, where the symbols Y and X are the same as presented above. The correlation coefficient R2 is 0.73 and the standard error 94.3 micrograms.
The correlation coefficient, R2 is 0.73 and the standard error 46.8. The above equation can be modified to provide a 95.5% confidence level as follows
Table 7 and FIG. 6 summarize the maximum and minimum dose of levonorgestrel levels required at the 95% confidence for varying woman BMI categories as determined from the modified equations described above.
Therefore another practical approach is to treat all women with body weight of over 200 pounds with the same formulations. For example for women co-administered 30 μg EE per day, the level of LNG equivalent would be 350 μg per day (for the 1.5% pregnancy level), and 200 μg per day (for the 3% pregnancy level). An intermediate level of 260 μg per day can also be prepared.

[5] = for every 10 μg per day of EE delivered
[6] = BMI >17.5 < 22.5, 68% confidence level, 30 μg EE
[7] = BMI >17.5 < 22.5, 95.5% confidence level, 30 μg EE
[8] = BMI >22.5 < 27.5, 68% confidence level, 30 μg EE
[9] = BMI >22.5 < 27.5, 95.5% confidence level, 30 μg EE
[10] = BMI >27.5 < 32.5, 68% confidence level, 30 μg EE
[11] = BMI >27.5 < 32.5, 95.5% confidence level, 30 μg EE
[12] = BMI >32.5 < 37.5, 68% confidence level, 30 μg EE
[13] = BMI >32.5 < 37.5, 95.5% confidence level, 30 μg EE
[14] = BMI >37.5 < 42.5, 68% confidence level, 30 μg EE
[15] = BMI >37.5 < 42.5, 95.5% confidence level, 30 μg EE
[16] = BMI >42.5 < 47.5, 68% confidence level, 30 μg EE
[17] = BMI >42.5 < 47.5, 95.5% confidence level, 30 μg EE
[18] = BMI >47.5 < 52.5, 68% confidence level, 30 μg EE
[19] = BMI >47.5 < 52.5, 95.5% confidence level, 30 μg EE
[20] = weight 90 to ≤120, 68% confidence level
[21] = weight 90 to ≤120, 95.5% confidence level
[22] = weight 120 to ≤150, 68% confidence level
[23] = weight 120 to ≤150, 95.5% confidence level
[24] = weight 150 to ≤180, 68% confidence level
[25] = weight 150 to ≤180, 95.5% confidence level
[26] = weight 180 to ≤210, 68% confidence level
[27] = weight 180 to ≤210, 95.5% confidence level
[28] = weight 210 to ≤240, 68% confidence level
[29] = weight 210 to ≤240, 95.5% confidence level
[30] = weight 240 to ≤270, 68% confidence level
[31] = weight 240 to ≤270, 95.5% confidence level
[32] = weight 270+, 68% confidence level
[33] = weight 270+, 95.5% confidence level

- increase of free LNG as share of the approximate steady state level [2, 5]: 20%
- change of free LNG in the plasma ([2]; for every one μg per day reduction or increase of EE below or above 30 μg per day): 30 picograms per ml
Structure (SMILES): C#C[C@]1(O)CC[C@H]2[C@@H]3CCC4=CC(=O)CC[C@@H]4[C@H]3CC[C@@]21CC [LNG, levonorgestrel]
- increase of free LNG circulating in the plasma [1, 5]: 300 picograms per ml
- approximate steady state level of LNG ([1]; plasma): ~1500 picograms LNG per ml
- % of pregnancies (healthy women [3]; weight category >90 but ≤ 120 pounds): 1.5%
- % of pregnancies (healthy women [3]; weight category >120 but ≤ 150 pounds): 2.66%
- dose required (healthy women [4]; 25 BMI woman, 95% confidence level, 3% pregnancy rate): 26
- LNG daily dosage, high boundary value (healthy women [4]; 27.5 BMI woman, 95.5% confidence, pregnancy rate of 1.5%): 430 microgram
- daily dose, low boundary value (healthy women [4]; 150 pound person, 95.5% confidence, 3 pregnancies per 100 woman years, 30 μg EE): 62.4 µg
- daily dose, high boundary value (healthy women [4]; 150 pound person, 95.5% confidence, pregnancy rate of 1.5%, 30 μg EE): 302 µg
- LNG Daily Required Dose, 1.5% Pregnancy Rate (healthy women [4]; [6]): 283 µg
- LNG Daily Required Dose, 3% Pregnancy Rate (healthy women [4]; [6]): 47 µg
- LNG Daily Required Dose, 1.5% Pregnancy Rate (healthy women [4]; [7]): 378 µg
- LNG Daily Required Dose, 3% Pregnancy Rate (healthy women [4]; [7]): 0.1 µg
- LNG Daily Required Dose, 1.5% Pregnancy Rate (healthy women [4]; [8]): 335 µg
- LNG Daily Required Dose, 3% Pregnancy Rate (healthy women [4]; [8]): 72 µg
- LNG Daily Required Dose, 1.5% Pregnancy Rate (healthy women [4]; [9]): 430 µg
- LNG Daily Required Dose, 3% Pregnancy Rate (healthy women [4]; [9]): 26 µg
- LNG Daily Required Dose, 1.5% Pregnancy Rate (healthy women [4]; [10]): 390 µg
- LNG Daily Required Dose, 3% Pregnancy Rate (healthy women [4]; [10]): 99 µg
- LNG Daily Required Dose, 1.5% Pregnancy Rate (healthy women [4]; [11]): 484 µg
- LNG Daily Required Dose, 3% Pregnancy Rate (healthy women [4]; [11]): 52 µg
- LNG Daily Required Dose, 1.5% Pregnancy Rate (healthy women [4]; [12]): 447 µg
- LNG Daily Required Dose, 3% Pregnancy Rate (healthy women [4]; [12]): 127 µg
- LNG Daily Required Dose, 1.5% Pregnancy Rate (healthy women [4]; [13]): 541 µg
- LNG Daily Required Dose, 3% Pregnancy Rate (healthy women [4]; [13]): 80 µg
- LNG Daily Required Dose, 1.5% Pregnancy Rate (healthy women [4]; [14]): 507 µg
- LNG Daily Required Dose, 3% Pregnancy Rate (healthy women [4]; [14]): 157 µg
- LNG Daily Required Dose, 1.5% Pregnancy Rate (healthy women [4]; [15]): 601 µg
- LNG Daily Required Dose, 3% Pregnancy Rate (healthy women [4]; [15]): 110 µg
- LNG Daily Required Dose, 1.5% Pregnancy Rate (healthy women [4]; [16]): 569 µg
- LNG Daily Required Dose, 3% Pregnancy Rate (healthy women [4]; [16]): 187 µg
- LNG Daily Required Dose, 1.5% Pregnancy Rate (healthy women [4]; [17]): 663 µg
- LNG Daily Required Dose, 3% Pregnancy Rate (healthy women [4]; [17]): 140 µg
- LNG Daily Required Dose, 1.5% Pregnancy Rate (healthy women [4]; [18]): 633 µg
- LNG Daily Required Dose, 3% Pregnancy Rate (healthy women [4]; [18]): 219 µg
- LNG Daily Required Dose, 1.5% Pregnancy Rate (healthy women [4]; [19]): 728 µg
- LNG Daily Required Dose, 3% Pregnancy Rate (healthy women [4]; [19]): 172 µg
- Daily LNG Required Dose, 1.5% Pregnancy Rate Dose (healthy women [4]; [20]): 171 µg/day
- Daily LNG Required Dose, 3% Pregnancy Rate Dose (healthy women [4]; [20]): 41 µg/day
- Daily LNG Required Dose, 1.5% Pregnancy Rate Dose (healthy women [4]; [21]): 215 µg/day
- Daily LNG Required Dose, 3% Pregnancy Rate Dose (healthy women [4]; [21]): 19 µg/day
- Daily LNG Required Dose, 1.5% Pregnancy Rate Dose (healthy women [4]; [22]): 258 µg/day
- Daily LNG Required Dose, 3% Pregnancy Rate Dose (healthy women [4]; [22]): 84 µg/day
- Daily LNG Required Dose, 1.5% Pregnancy Rate Dose (healthy women [4]; [23]): 302 µg/day
- Daily LNG Required Dose, 3% Pregnancy Rate Dose (healthy women [4]; [23]): 62 µg/day
- Daily LNG Required Dose, 1.5% Pregnancy Rate Dose (healthy women [4]; [24]): 331 µg/day
- Daily LNG Required Dose, 3% Pregnancy Rate Dose (healthy women [4]; [24]): 120 µg/day
- Daily LNG Required Dose, 1.5% Pregnancy Rate Dose (healthy women [4]; [25]): 375 µg/day
- Daily LNG Required Dose, 3% Pregnancy Rate Dose (healthy women [4]; [25]): 98 µg/day
- Daily LNG Required Dose, 1.5% Pregnancy Rate Dose (healthy women [4]; [26]): 389 µg/day
- Daily LNG Required Dose, 3% Pregnancy Rate Dose (healthy women [4]; [26]): 148 µg/day
- Daily LNG Required Dose, 1.5% Pregnancy Rate Dose (healthy women [4]; [27]): 433 µg/day
- Daily LNG Required Dose, 3% Pregnancy Rate Dose (healthy women [4]; [27]): 126 µg/day
- Daily LNG Required Dose, 1.5% Pregnancy Rate Dose (healthy women [4]; [28]): 432 µg/day
- Daily LNG Required Dose, 3% Pregnancy Rate Dose (healthy women [4]; [28]): 169 µg/day
- Daily LNG Required Dose, 1.5% Pregnancy Rate Dose (healthy women [4]; [29]): 476 µg/day
- Daily LNG Required Dose, 3% Pregnancy Rate Dose (healthy women [4]; [29]): 147 µg/day
- Daily LNG Required Dose, 1.5% Pregnancy Rate Dose (healthy women [4]; [30]): 459 µg/day
- Daily LNG Required Dose, 3% Pregnancy Rate Dose (healthy women [4]; [30]): 183 µg/day
- Daily LNG Required Dose, 1.5% Pregnancy Rate Dose (healthy women [4]; [31]): 503 µg/day
- Daily LNG Required Dose, 3% Pregnancy Rate Dose (healthy women [4]; [31]): 161 µg/day
- Daily LNG Required Dose, 1.5% Pregnancy Rate Dose (healthy women [4]; [32]): 472 µg/day
- Daily LNG Required Dose, 3% Pregnancy Rate Dose (healthy women [4]; [32]): 189 µg/day
- Daily LNG Required Dose, 1.5% Pregnancy Rate Dose (healthy women [4]; [33]): 516 µg/day
- Daily LNG Required Dose, 3% Pregnancy Rate Dose (healthy women [4]; [33]): 167 µg/day
- level of LNG equivalent (healthy women [4]; 1.5% pregnancy level): 350 μg per day
- level of LNG equivalent (healthy women [4]; 3% pregnancy level): 200 μg per day
